Earlier results, collected in patent publication US8748582B2, “Affinity ligands and methods for protein purification” (Monash University, priority 2009, dated 2014).

Molecular target: IgG
Details: read-out: dissociation constant for IgG

Protein A: bacterial Fc receptor used as immobilised affinity ligand for antibodies
Kd: 0.1 µM
